Legend:
Assay in all cases: drug sensitivity score (DSS3, normalised partial AUC of % inhibition dose-response) (DSS (score)); higher = more sensitive (stronger inhibition of viability); extreme values may be limits of the assay
FMOC14 = patient-derived high-grade serous ovarian cancer cells; details: 72 h; library: FO5A; assay format: 2D, 384-well, CellTiter-Glo
Procedure, shortened: (§1)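 Early-passage (under 10) patient-derived ovarian cancer cells were dispensed onto 384-well flat clear-bottom plates pre-plated with compounds at five concentrations spanning a 10,000-fold range, then incubated 72 h at 37 °C, 5% CO2. Viability was read with CellTiter-Glo, and the data were processed in Breeze. The drug sensitivity score is a partial area under the percent-inhibition dose-response curve divided by the log of the upper asymptote, with higher values meaning greater sensitivity.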

FMOC06 = patient-derived mucinous ovarian cancer cells; details: 72 h; library: FO5A; assay format: 2D, 384-well, CellTiter-Glo
Procedure, shortened: as §1

FMOC04 = patient-derived high-grade serous ovarian cancer cells; details: 72 h; library: FO5A; assay format: 2D, 384-well, CellTiter-Glo
Procedure, shortened: as §1

FMOC22 = patient-derived mucinous ovarian cancer cells; details: 72 h; library: FO5A; assay format: 2D, 384-well, CellTiter-Glo
Procedure, shortened: as §1

FMOC02_2 = patient-derived low-grade serous ovarian cancer cells; details: 72 h; library: FO5A; assay format: 2D, 384-well, CellTiter-Glo
Procedure, shortened: as §1

FMOC17 = patient-derived low-grade serous ovarian cancer cells; details: 72 h; library: FO5A; assay format: 2D, 384-well, CellTiter-Glo
Procedure, shortened: as §1

FMOC02_1 = patient-derived low-grade serous ovarian cancer cells; details: 72 h; library: FO5A; assay format: 2D, 384-well, CellTiter-Glo
Procedure, shortened: as §1

FMOC02_3 = patient-derived low-grade serous ovarian cancer cells; details: 72 h; library: FO5A; assay format: 2D, 384-well, CellTiter-Glo
Procedure, shortened: as §1

FMOC28 = patient-derived low-grade serous ovarian cancer cells; details: 72 h; library: FO5A; assay format: 2D, 384-well, CellTiter-Glo
Procedure, shortened: as §1

FMOC11 = patient-derived high-grade serous ovarian cancer cells; details: 72 h; library: FO5A; assay format: 2D, 384-well, CellTiter-Glo
Procedure, shortened: as §1

FMOC09 = patient-derived high-grade serous ovarian cancer cells; details: 72 h; library: FO5A; assay format: 2D, 384-well, CellTiter-Glo
Procedure, shortened: as §1

FMOC25_2 = patient-derived low-grade serous ovarian cancer cells; details: 72 h; library: FO5A; assay format: 2D, 384-well, CellTiter-Glo
Procedure, shortened: as §1

FMOC27 = patient-derived low-grade serous ovarian cancer cells; details: 72 h; library: FO5A; assay format: 2D, 384-well, CellTiter-Glo
Procedure, shortened: as §1

FMOC03 = patient-derived mucinous ovarian cancer cells; details: 72 h; library: FO5A; assay format: 2D, 384-well, CellTiter-Glo
Procedure, shortened: as §1

FMOC24 = patient-derived high-grade serous ovarian cancer cells; details: 72 h; library: FO5A; assay format: 2D, 384-well, CellTiter-Glo
Procedure, shortened: as §1

FMOC25_1 = patient-derived low-grade serous ovarian cancer cells; details: 72 h; library: FO4B; assay format: 2D, 384-well, CellTiter-Glo
Procedure, shortened: as §1

Structure (SMILES)	drug sensitivity score (FMOC14)	drug sensitivity score (FMOC06)	drug sensitivity score (FMOC04)	drug sensitivity score (FMOC22)	drug sensitivity score (FMOC02_2)	drug sensitivity score (FMOC17)	drug sensitivity score (FMOC02_1)	drug sensitivity score (FMOC02_3)	drug sensitivity score (FMOC28)	drug sensitivity score (FMOC11)	drug sensitivity score (FMOC09)	drug sensitivity score (FMOC25_2)	drug sensitivity score (FMOC27)	drug sensitivity score (FMOC03)	drug sensitivity score (FMOC24)	drug sensitivity score (FMOC25_1)
O=C(Nc1ccc(OC(F)(F)Cl)cc1)c1cnc(N2CC[C@@H](O)C2)c(-c2cc[nH]n2)c1 [Asciminib]	0	1	0	0	1	0	0	0	0	0	0	0.1	0	0	0.9	
CC[C@@](C)(Nc1ccnc(-c2c[nH]c3ncccc23)n1)C(=O)NCC(F)(F)F [Decernotinib]	0	2.6	0	0	1.7	0	3.3	0.4	0	0	0	0	0	0	0	
C[C@H]1CN(C2COC2)CCN1c1ccc(Nc2cc(-c3ccnc(N4CCn5c(cc6c5CC(C)(C)C6)C4=O)c3CO)cn(C)c2=O)nc1 [GDC-0853]	0	0	0	0	0	0	0	0	0.4	0	0	0	0	0	0	
COc1cc(C)[nH]c(=O)c1CNC(=O)c1c(C)n([C@H](C)C2CCOCC2)c2ccccc12 [CPI-360]	0	0	0.05	0	0.1	0	0	0	3.4	0	0	0	0	0	0	
CC(C)(O)CNc1nc(Nc2ccnc(C(F)(F)F)c2)nc(-c2cccc(C(F)(F)F)n2)n1 [Enasidenib]	0	0	0	0	2.5	2.3	1.5	0	4.4	0	0	1.7	0	1.4	0	
Cc1nc2cccc(N)c2c(=O)n1C1CCC(=O)NC1=O (stereo not given) [CC122]	0.2	0	0	0	0	0.5	0	0.4	2.5	0	0	0	0.1	0	0	
CNS(=O)(=O)Nc1nccc(Cc2c(C)c3ccc(Oc4ncccn4)cc3oc2=O)c1F	0	0.4	0	0.7	0.8	0	0	3.7	4.5	0	0.7	5.2	0	0.4	0	
CN1CCC(COc2cnc(-c3cccc(Cn4nc(-c5cccc(C#N)c5)ccc4=O)c3)nc2)CC1 [Tepotinib]	0	0	0.75	0	1.6	0.5	0.3	3.7	3.4	0	0	2.3	0	0.2	1.9	
CCCN(CCC)C(=O)C1=Cc2ccc(-c3ccc(C(=O)N4CCCC4)cc3)cc2N=C(N)C1 [Motolimod]	0	0.3	0	0	0	0	0	1.6	2.5	0	0	0.1	0.4	0	0	
COc1cc2ncnc(Nc3cccc(Cl)c3F)c2cc1OC(=O)N1CCN(C)C[C@H]1C [AZD3759]	0.5	0.2	0.25	0	5.4	7	6.4	5.9	5	3.3	2.8	4.2	2.8	4.8	0	
N#Cc1ccnc(N2C(=O)CC[C@H]2C(=O)N(c2cncc(F)c2)[C@H](C(=O)NC2CC(F)(F)C2)c2ccccc2Cl)c1 [Ivosidenib]	0	0	0	0	0	0.3	0.2	0	2.6	0	0	0	0	0	0.2	
Cc1cc(F)c(C(=O)Nc2cccc(-c3nncn3C(C)C)n2)cc1-n1cnc(C2CC2)c1 [Selonsertib]	0	0	0	0	0	1.5	0	0	0	0	0	0	0	0	0.6	
Cc1c(-c2c(-c3ccc(F)o3)sc3ncnc(O[C@H](Cc4ccccc4OCc4ccnn4CC(F)(F)F)C(=O)O)c23)ccc(OCCN2CCN(C)CC2)c1Cl	0	0	0.05	0	0	0	0	2.8	0	0	0	0	0	0	8	
O=C1Cc2cc(C(=O)NC3C[C@H]4CC[C@@H](C3)N4S(=O)(=O)CC3CCN(CCCC(F)(F)F)CC3)c(Cl)cc2N1 (stereo not given in full)	0	2.3	0	0	0	0	0	0	0.2	0	0	0	0	0	0	
CC(C)Oc1ccc(-c2nn([C@@H](C)c3oc4ccc(F)cc4c(=O)c3-c3cccc(F)c3)c3ncnc(N)c23)cc1F [TGR-1202]	1.7	0.3	0.05	0	1.1	3.5	1.6	2	4.6	0	0	0.1	0.1	0	0.2	
C[C@H](Nc1ncnc2[nH]cnc12)c1cc2ccc(F)cc2nc1-c1ccccn1 [AMG319]	0	0	0	0	0.1	0.1	0	0	0	0	0	0	0	0	0.7	
Nc1nc(Cl)nc2c1ncn2[C@@H]1O[C@H](CO)[C@@H](O)[C@@H]1F [Clofarabine]	0	5.3		10.5	8.9			13.7			7.8	16.5		4.1	4.9	8.5
CCN(CC)CCOc1ccc(C(=C(Cl)c2ccccc2)c2ccccc2)cc1 [Clomifene]	5	5.6		4.8	8.2			9.1			5	7.2		7	9.9	4.7
CON(C)C(=O)N1N=C(c2cc(F)ccc2F)S[C@@]1(CCCN)c1ccccc1 [Filanesib]	0	0		6.3	6.8			12.7			7.5	12		4.4	0	6.1
O=C(/C=C\n1cnc(-c2cc(C(F)(F)F)cc(C(F)(F)F)c2)n1)NNc1ccccn1 [Verdinexor]	6	11.2		8.6	9.4			9.2			7.6	11.9		8.2	11.2	6.2
O=c1[nH]c(=O)n([C@H]2C[C@H](O)[C@@H](CO)O2)cc1F [Floxuridine]	0.8	0.8		9.3	2.6			2.3			2.2	3.8		4.1	0	0.5
CCN(CC)CCCC(C)Nc1c2ccc(Cl)cc2nc2ccc(OC)cc12 (stereo not given) [Mepacrine]	9.8	10		9.2	19.4			19.4			10.3	10.9		9.5	20.2	10.3
CCc1cnn2c(NCc3ccc[n+]([O-])c3)cc(N3CCCC[C@H]3CCO)nc12 [Dinaciclib]	18.5	20.2		13.1	22.1			25			10.3	28.3		16.4	18.8	17.6
NS(=O)(=O)OC[C@@H]1C[C@@H](n2ccc3c(N[C@H]4CCc5ccccc54)ncnc32)C[C@@H]1O [Pevonedistat]	0.3	4.1		12.6	10.2			10.6			10.1	20.5		8.2	10.7	11.5
O=C(c1ccc(F)c(F)c1Nc1ccc(I)cc1F)N1CC(O)([C@@H]2CCCCN2)C1 [Cobimetinib]	0.1	9		7.5	13.3			13.7			6.1	9.2		10.3	1.8	10
COc1ccc(C[C@H](NC(=O)[C@H](C)NC(=O)CN2CCOCC2)C(=O)N[C@@H](Cc2ccccc2)C(=O)C2(C)CO2)cc1 (stereo in doubt) [ONX-0914]	14.1	16.9		14.9	12.5			19.3			12.8	18.8		16.5	20.9	16.4

— the supplement of paper PMC9938120
